# Data as given in patent US9414597B2, “Pesticidal mixtures including spiroheterocyclic pyrrolidine diones” (Syngenta Participations AG, priority 2011, dated 2016).
# Values joined by “and” are separate entries in the source; they are usually repeats but may differ in a detail not shown here. Equal values may be shown once.
# Columns and labels:
# [1] = tested on: Tetranychus urticae (Two-Spotted Spider Mite); test: Tetranychus urticae feeding/contact activity, preventive (bean leaf discs); format: in vivo
# Description: (§1) The action to be expected E for a given active ingredient combination obeys the so-called COLBY formula and can be calculated as follows (COLBY, S. R. “Calculating synergistic and antagonistic responses of herbicide combination”. Weeds, Vol. 15, pages 20-22; 1967): • ppm=milligrams of active ingredient(=a.i.) per liter of spray mixture • X=% action by active ingredient A) using p ppm of active ingredient • Y=% action by active ingredient B) using q ppm of active ingredient.
# (§2) According to COLBY, the expected (additive) action of active ingredients A)+B) using p+q ppm of active ingredient is
# (§3) If the action actually observed (O) is greater than the expected action (E), then the action of the combination is super-additive, i.e. there is a synergistic effect. In mathematical terms the synergism factor SF corresponds to O/E. In the agricultural practice an SF of ≧1.2 indicates significant improvement over the purely complementary addition of activities (expected activity), while an SF of ≦0.9 in the practical application routine signals a loss of activity compared to the expected activity.
# Tetranychus urticae (Two-Spotted Spider Mite):
# feeding/contact activity, preventive
# Bean leaf discs on agar in 24-well microtiter plates are sprayed with the DMSO test solutions. After drying, the leaf discs are infested with mite populations of mixed ages. […] (1 PPM=1 mg l^−1)
# [2] = tested on: Myzus persicae (Green Peach Aphid); test: Myzus persicae feeding/residual contact activity, preventive (sunflower leaf discs); format: in vivo
# Description: as §1, §2, §3
# Myzus persicae (Green Peach Aphid):
# feeding/residual contact activity, preventive
# Sunflower leaf discs are placed on agar in a 24-well microtiter plate and sprayed with the DMSO test solutions. After drying, the leaf discs are infested with an aphid population of mixed ages. […] (1 PPM=1 mg l^−1)
# [3] = single active, 3.125 PPM AI, after 5 days
# [4] = single active, 6.25 PPM AI, after 5 days
# [5] = single active, 12.5 PPM AI, after 5 days
# [6] = single active, 100 PPM AI, after 5 days
# [7] = single active, 200 PPM AI, after 5 days
# [8] = single active, 400 PPM AI, after 5 days
# [9] = single active, 800 PPM AI, after 5 days
# [10] = single active, 50 PPM AI, after 5 days
compound,measurement,setting,value
"CC1(C)[C@H](C(=O)O[C@H](C#N)c2cccc(Oc3ccccc3)c2)[C@@H]1/C=C(\Cl)C(F)(F)F (racemic) [Lambda cyhalothrin, lambda-cyhalothrin]",AVERAGE DEAD IN % AFTER 5 DAYS,[1]; [3],15%
same,AVERAGE DEAD IN % AFTER 5 DAYS,"[2]; Lambda Cyhalothrin alone, PPM AI r7-r10:50 r11-r14:25",57%
CNC(=O)c1cc(Cl)cc(C)c1NC(=O)c1cc(Br)nn1-c1ncccc1Cl [Chlorantraniliprol],AVERAGE DEAD IN % AFTER 5 DAYS,"[1]; Chlorantraniliprol alone, PPM AI r6:200 r7:400 r8:800",25% and 37%
"CNC(=O)c1cc(Cl)cc(C)c1NC(=O)c1cc(Br)nn1-c1ncccc1Cl [Chlorantraniliprole, chlorantraniliprole]",AVERAGE DEAD IN % AFTER 5 DAYS,"[1]; Chlorantraniliprole alone, 200 PPM AI",25%
same,AVERAGE DEAD IN % AFTER 5 DAYS,"[1]; Chlorantraniliprole alone, PPM AI r6:25 r7:50 r8:100",0%
same,AVERAGE DEAD IN % AFTER 5 DAYS,"[2]; Chlorantraniliprole alone, 50 PPM AI",0%
same,AVERAGE DEAD IN % AFTER 5 DAYS,"[2]; Table 45, Chlorantraniliprole alone, 50 PPM AI",0%
CCOC(=O)OC1=C(c2c(C)cc(Cl)cc2C)C(=O)N(C)C12CCN(OC)CC2 [Compound T1.055],AVERAGE DEAD IN % AFTER 5 DAYS,"[1]; T1.055 alone, 100 PPM AI",0%
same,AVERAGE DEAD IN % AFTER 5 DAYS,"[1]; T1.055 alone, 200 PPM AI",0%
same,AVERAGE DEAD IN % AFTER 5 DAYS,"[1]; T1.055 alone, PPM AI r6:200 r7:100 r8:50",0%
same,AVERAGE DEAD IN % AFTER 5 DAYS,"[2]; T1.055 alone, 50 PPM AI",10%
same,AVERAGE DEAD IN % AFTER 5 DAYS,"[2]; T1.055 alone, PPM AI r6:100 r7:50 r8:25 r9:12.5",0%
same,AVERAGE DEAD IN % AFTER 5 DAYS,"[2]; T1.055 alone, PPM AI r6:100 r7:50 r8:25 r9:12.5 r10:6.25",0%
same,AVERAGE DEAD IN % AFTER 5 DAYS,"[2]; Table 45, T1.055 alone, 50 PPM AI",0%
same,AVERAGE DEAD IN % AFTER 5 DAYS,"[2]; Table 45, T1.055 alone, 100 PPM AI",25%
same,AVERAGE DEAD IN % AFTER 5 DAYS,"[2]; Table 45, T1.055 alone, 200 PPM AI",65%
same,AVERAGE DEAD IN % AFTER 5 DAYS,"[2]; Table 46, T1.055 alone, 50 PPM AI",25%
same,AVERAGE DEAD IN % AFTER 5 DAYS,"[2]; Table 48, T1.055 alone, 12.5 PPM AI",0%
same,AVERAGE DEAD IN % AFTER 5 DAYS,"[2]; Table 48, T1.055 alone, 25 PPM AI",0%
same,AVERAGE DEAD IN % AFTER 5 DAYS,"[2]; Table 48, T1.055 alone, 50 PPM AI",65%
same,AVERAGE DEAD IN % AFTER 5 DAYS,"[2]; Table 48, T1.055 alone, 100 PPM AI",65%
same,AVERAGE DEAD IN % AFTER 5 DAYS,"[2]; Table 48, T1.055 alone, 200 PPM AI",80%
CCOC(=O)OC1=C(c2c(C)cc(C)cc2C)C(=O)N(C)C12CCN(OC)CC2 [Compound T1.058],AVERAGE DEAD IN % AFTER 5 DAYS,"[1]; T1.058 alone, 50 PPM AI",0%
same,AVERAGE DEAD IN % AFTER 5 DAYS,"[1]; T1.058 alone, 100 PPM AI",55%
same,AVERAGE DEAD IN % AFTER 5 DAYS,"[1]; T1.058 alone, PPM AI r7:50 r8:25 r9:12.5 r10:6.25 r11:3.125 r12-r15:50",0%
CCOC(=O)OC1=C(c2c(C)cc(Cl)cc2C)C(=O)NC12CCN(OC)CC2 [Compound T1iii.055],AVERAGE DEAD IN % AFTER 5 DAYS,"[1]; T1iii.055 alone, 12.5 PPM AI",0%
same,AVERAGE DEAD IN % AFTER 5 DAYS,"[1]; single active, 1.56 PPM AI, after 5 days",0%
same,AVERAGE DEAD IN % AFTER 5 DAYS,[1]; [3],0%
same,AVERAGE DEAD IN % AFTER 5 DAYS,[1]; [4],0%
same,AVERAGE DEAD IN % AFTER 5 DAYS,[1]; [5],0%
same,AVERAGE DEAD IN % AFTER 5 DAYS,"[2]; T1iii.055 alone, 12.5 PPM AI",0%
same,AVERAGE DEAD IN % AFTER 5 DAYS,"[2]; T1iii.055 alone, 25 PPM AI",0%
same,AVERAGE DEAD IN % AFTER 5 DAYS,"[2]; T1iii.055 alone, PPM AI r6:200 r7:100 r8:50 r9:25, 25 ppm active ingredient",50%
same,AVERAGE DEAD IN % AFTER 5 DAYS,"[2]; T1iii.055 alone, PPM AI r6:200 r7:100 r8:50 r9:25, 200 ppm active ingredient",80%
same,AVERAGE DEAD IN % AFTER 5 DAYS,"[2]; T1iii.055 alone, PPM AI r7:200 r8:100 r9:50",0%
"CNC(=O)c1cc(C#N)cc(C)c1NC(=O)c1cc(Br)nn1-c1ncccc1Cl [Cyantraniliprole, cyantraniliprole]",AVERAGE DEAD IN % AFTER 5 DAYS,"[2]; Cyantraniliprole alone, 1.5 PPM AI",0%
"Cc1nn(C)c(/C(OC(=O)C(C)(C)C)=C(\C#N)c2ccc(C(C)(C)C)cc2)c1C [Cyenopyrafen, cyenopyrafen]",AVERAGE DEAD IN % AFTER 5 DAYS,"[1]; Cyenopyrafen alone, 1.5 PPM AI",0%
same,AVERAGE DEAD IN % AFTER 5 DAYS,"[1]; single active, 1.5 PPM AI, after 5 days",0%
same,AVERAGE DEAD IN % AFTER 5 DAYS,"[1]; single active, 3 PPM AI, after 5 days",40%
same,AVERAGE DEAD IN % AFTER 5 DAYS,"[1]; single active, 6 PPM AI, after 5 days",85%
same,AVERAGE DEAD IN % AFTER 5 DAYS,"[1]; single active, 12 PPM AI, after 5 days",92%
same,AVERAGE DEAD IN % AFTER 5 DAYS,"[2]; Cyenopyrafen alone, 200 PPM AI",0%
"CC1=NNC(=O)N(/N=C/c2cccnc2)C1 [Pymetrozine, pymetrozine]",AVERAGE DEAD IN % AFTER 5 DAYS,"[1]; Pymetrozine alone, 100 PPM AI",0%
same,AVERAGE DEAD IN % AFTER 5 DAYS,"[1]; Pymetrozine alone, 200 PPM AI",0%
same,AVERAGE DEAD IN % AFTER 5 DAYS,[1]; [6],0%
same,AVERAGE DEAD IN % AFTER 5 DAYS,[1]; [7],0%
same,AVERAGE DEAD IN % AFTER 5 DAYS,[1]; [8],0%
same,AVERAGE DEAD IN % AFTER 5 DAYS,[1]; [9],50%
same,AVERAGE DEAD IN % AFTER 5 DAYS,"[2]; Pymetrozine alone, 0.4 PPM AI",0%
same,AVERAGE DEAD IN % AFTER 5 DAYS,"[2]; Pymetrozine alone, 0.8 PPM AI",25%
same,AVERAGE DEAD IN % AFTER 5 DAYS,"[2]; Table 48, Pymetrozine alone, 0.8 PPM AI",25%
"CC(c1ccc(C(F)(F)F)nc1)S(C)(=O)=NC#N (stereo not drawn) [Sulfoxaflor, sulfoxaflor]",AVERAGE DEAD IN % AFTER 5 DAYS,"[1]; Sulfoxaflor alone, PPM AI r6:50 r7:100 r8:200 r9:400",0%
same,AVERAGE DEAD IN % AFTER 5 DAYS,[1]; [6],0%
same,AVERAGE DEAD IN % AFTER 5 DAYS,[1]; [7],0%
same,AVERAGE DEAD IN % AFTER 5 DAYS,[1]; [8],0%
same,AVERAGE DEAD IN % AFTER 5 DAYS,[1]; [9],35%
same,AVERAGE DEAD IN % AFTER 5 DAYS,"[2]; Sulfoxaflor alone, 0.2 PPM AI",20%
"CN1COCN(Cc2cnc(Cl)s2)/C1=N\[N+](=O)[O-] [Thiamethoxam, thiamethoxam]",AVERAGE DEAD IN % AFTER 5 DAYS,"[1]; Thiamethoxam alone, PPM AI r6:50 r7:100 r8:200 r9:400 r10:100 r11:200 r12:400",0%
same,AVERAGE DEAD IN % AFTER 5 DAYS,[1]; [10],0%
same,AVERAGE DEAD IN % AFTER 5 DAYS,[1]; [6],0%
same,AVERAGE DEAD IN % AFTER 5 DAYS,[1]; [7],0%
same,AVERAGE DEAD IN % AFTER 5 DAYS,[1]; [8],0%
same,AVERAGE DEAD IN % AFTER 5 DAYS,[1]; [9],37%
same,AVERAGE DEAD IN % AFTER 5 DAYS,"[2]; Thiamethoxam alone, 0.8 PPM AI",0%
abamectin,AVERAGE DEAD IN % AFTER 5 DAYS,"[1]; Abamectin alone, PPM AI r6:0.00625 r7:0.0125 r8:0.025 r9:0.05 r10:0.1",0%
emamectin benzoate,AVERAGE DEAD IN % AFTER 5 DAYS,"[1]; Emamectin Benzoate alone, 0.05 PPM AI",0%
same,AVERAGE DEAD IN % AFTER 5 DAYS,"[1]; Emamectin Benzoate alone, PPM AI r7:0.1 r8:0.05 r9:0.025 r10:0.0125 r11:0.00625",0%
same,AVERAGE DEAD IN % AFTER 5 DAYS,"[2]; Emamectin Benzoate alone, PPM AI r7:12.5 r8:25 r9:50 r10:100 r11:200",0%
same,AVERAGE DEAD IN % AFTER 5 DAYS,"[2]; Table 46, Emamectin Benzoate alone, 12.5 PPM AI",0%
same,AVERAGE DEAD IN % AFTER 5 DAYS,"[2]; Table 46, Emamectin Benzoate alone, 25 PPM AI",0%
same,AVERAGE DEAD IN % AFTER 5 DAYS,"[2]; Table 46, Emamectin Benzoate alone, 50 PPM AI",0%
same,AVERAGE DEAD IN % AFTER 5 DAYS,"[2]; Table 46, Emamectin Benzoate alone, 100 PPM AI",0%
same,AVERAGE DEAD IN % AFTER 5 DAYS,"[2]; Table 46, Emamectin Benzoate alone, 200 PPM AI",0%
spinetoram,AVERAGE DEAD IN % AFTER 5 DAYS,[1]; [4],0%
same,AVERAGE DEAD IN % AFTER 5 DAYS,[1]; [5],25%
same,AVERAGE DEAD IN % AFTER 5 DAYS,"[1]; single active, 25 PPM AI, after 5 days",80%
same,AVERAGE DEAD IN % AFTER 5 DAYS,[1]; [10],95%
same,AVERAGE DEAD IN % AFTER 5 DAYS,"[2]; Spinetoram alone, 100 PPM AI",0%
